Columns and labels:
[1] = biological target: T1, Full length human recombinant HDAC11 (Homo sapiens, UniProt Q96DB2); experiment: In vitro histone deacetylase assay, enzymatic HDAC11 (electrophoretic mobility shift assay); format: biochemical; conditions: 10 nM HDAC11; 2 μM peptide substrate FAM-RHKK(tri-fluor-Ac)—NH2; 25° C.; 12 concentrations; read-out: HDAC11 Activity Range (IC50)
T1 construct: Full length human recombinant HDAC6 and HDAC11 proteins were expressed in baculoviral system
T1 sequence (Q96DB2 1-347): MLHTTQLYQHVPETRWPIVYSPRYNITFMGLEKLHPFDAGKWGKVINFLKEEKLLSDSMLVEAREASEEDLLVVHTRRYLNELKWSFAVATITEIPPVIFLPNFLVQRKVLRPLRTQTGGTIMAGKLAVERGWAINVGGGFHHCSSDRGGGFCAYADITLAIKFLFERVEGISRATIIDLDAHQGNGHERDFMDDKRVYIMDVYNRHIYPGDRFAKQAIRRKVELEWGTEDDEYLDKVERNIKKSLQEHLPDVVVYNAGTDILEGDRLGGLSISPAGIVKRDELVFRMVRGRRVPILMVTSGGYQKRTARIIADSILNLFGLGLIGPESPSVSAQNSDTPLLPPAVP
Outline: (§1)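 Baculovirus-expressed full-length enzymes (HDAC6 1 nM, FAM-RHKK(Ac)-NH2; HDAC11 10 nM, FAM-RHKK(tri-fluor-Ac)-NH2), 2 μM substrate, HEPES pH 7.5, 25°C, 12-point 3× dilutions. Product/substrate separated by microfluidic mobility shift after SDS quench; IC50 from 4-parameter fit, reported as +/++/+++ bins.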

[2] = biological target: T2, Full length human recombinant HDAC6 (Homo sapiens, UniProt Q9UBN7); experiment: In vitro histone deacetylase assay, enzymatic HDAC6 (electrophoretic mobility shift assay); format: biochemical; conditions: 1 nM HDAC6; 2 μM peptide substrate FAM-RHKK(Ac)—NH2; 25° C.; 12 concentrations; read-out: HDAC6 Activity Range (IC50)
T2 construct: Full length human recombinant HDAC6 and HDAC11 proteins were expressed in baculoviral system
T2 sequence (Q9UBN7 1-1215): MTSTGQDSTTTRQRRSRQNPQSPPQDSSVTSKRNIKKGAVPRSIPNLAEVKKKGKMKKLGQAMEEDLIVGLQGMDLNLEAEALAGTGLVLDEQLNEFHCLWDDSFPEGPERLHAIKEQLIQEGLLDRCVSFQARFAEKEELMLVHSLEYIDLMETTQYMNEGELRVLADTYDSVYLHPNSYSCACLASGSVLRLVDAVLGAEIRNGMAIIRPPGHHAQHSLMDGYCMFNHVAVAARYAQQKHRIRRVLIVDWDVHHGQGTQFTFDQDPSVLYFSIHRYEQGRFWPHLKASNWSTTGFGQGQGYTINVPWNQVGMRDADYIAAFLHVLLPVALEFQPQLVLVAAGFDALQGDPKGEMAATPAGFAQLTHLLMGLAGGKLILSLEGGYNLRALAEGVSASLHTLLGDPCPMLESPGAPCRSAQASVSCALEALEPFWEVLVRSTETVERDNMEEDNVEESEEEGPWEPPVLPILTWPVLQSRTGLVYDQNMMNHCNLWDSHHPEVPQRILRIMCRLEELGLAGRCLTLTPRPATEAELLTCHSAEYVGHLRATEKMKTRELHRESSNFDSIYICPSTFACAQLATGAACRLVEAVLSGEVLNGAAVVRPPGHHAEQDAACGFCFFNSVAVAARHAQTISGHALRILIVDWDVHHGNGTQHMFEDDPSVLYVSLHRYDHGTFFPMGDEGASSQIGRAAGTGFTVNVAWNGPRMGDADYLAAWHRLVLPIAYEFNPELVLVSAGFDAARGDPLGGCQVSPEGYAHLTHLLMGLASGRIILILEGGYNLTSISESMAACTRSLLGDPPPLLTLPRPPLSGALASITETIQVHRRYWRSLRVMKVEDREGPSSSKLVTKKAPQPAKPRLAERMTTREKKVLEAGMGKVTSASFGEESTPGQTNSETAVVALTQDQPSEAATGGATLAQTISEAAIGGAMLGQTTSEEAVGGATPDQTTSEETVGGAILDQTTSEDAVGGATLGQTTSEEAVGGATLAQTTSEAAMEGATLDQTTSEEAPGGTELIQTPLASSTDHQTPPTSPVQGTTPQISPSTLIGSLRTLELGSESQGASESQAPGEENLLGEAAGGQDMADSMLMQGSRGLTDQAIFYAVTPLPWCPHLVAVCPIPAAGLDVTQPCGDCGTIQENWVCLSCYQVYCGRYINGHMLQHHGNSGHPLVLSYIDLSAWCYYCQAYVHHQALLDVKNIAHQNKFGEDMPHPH
Outline: as §1

IC50 [1] | IC50 [2] | SMILES
> 500 nM | ≤ 100 nM | COCCN1CC[C@@]2(CCc3ccc(C(=O)NO)cc3C2)C1=O [Compound I-56, (S)—N-hydroxy-1′-(2-methoxyethyl)-2′-oxo-3,4-dihydro-1H-spiro[naphthalene-2,3′-pyrrolidine]-7-carboxamide]
> 500 nM | ≤ 100 nM | O=C(NO)c1ccc2c(c1)C[C@@]1(CC2)CCN(CC2CCOCC2)C1=O [Compound I-57, (S)—N-hydroxy-2′-oxo-1′-((tetrahydro-2H-pyran-4-yl)methyl)-3,4-dihydro-1H-spiro[naphthalene-2,3′-pyrrolidine]-7-carboxamide]
100 to 500 nM | ≤ 100 nM | O=C(NO)c1ccc2c(c1)C[C@@]1(CC2)CCN(C/C=C/c2ccccc2)C1=O [Compound I-58, (S)-1′-cinnamyl-N-hydroxy-2′-oxo-3,4-dihydro-1H-spiro[naphthalene-2,3′-pyrrolidine]-7-carboxamide]
> 500 nM | ≤ 100 nM | Cc1ccccc1CN1CC[C@@]2(CCc3ccc(C(=O)NO)cc3C2)C1=O [Compound I-59, (S)—N-hydroxy-1′-(2-methylbenzyl)-2′-oxo-3,4-dihydro-1H-spiro[naphthalene-2,3′-pyrrolidine]-7-carboxamide]
> 500 nM | ≤ 100 nM | O=C(NO)c1ccc2c(c1)C[C@@]1(CC2)CCN(Cc2ccccc2C(F)(F)F)C1=O [Compound I-60, (S)—N-hydroxy-2′-oxo-1′-(2-(trifluoromethyl)benzyl)-3,4-dihydro-1H-spiro[naphthalene-2,3′-pyrrolidine]-7-carboxamide]
> 500 nM | ≤ 100 nM | O=C(NO)c1ccc2c(c1)C[C@@]1(CC2)CCN(Cc2ccccc2Cl)C1=O [Compound I-61, (S)-1′-(2-chlorobenzyl)-N-hydroxy-2′-oxo-3,4-dihydro-1H-spiro[naphthalene-2,3′-pyrrolidine]-7-carboxamide]
> 500 nM | 100 to 500 nM | O=C(NO)c1ccc2c(c1)C[C@@]1(CC2)CCN(Cc2ccccc2OC(F)(F)F)C1=O [Compound I-62, (S)—N-hydroxy-2′-oxo-1′-(2-(trifluoromethoxy)benzyl)-3,4-dihydro-1H-spiro[naphthalene-2,3′-pyrrolidine]-7-carboxamide]
> 500 nM | ≤ 100 nM | O=C(NO)c1ccc2c(c1)C[C@@]1(CC2)CCN(Cc2ccc3nonc3c2)C1=O [Compound I-63, (S)-1′-(benzo[c][1,2,5]oxadiazol-5-ylmethyl)-N-hydroxy-2′-oxo-3,4-dihydro-1H-spiro[naphthalene-2,3′-pyrrolidine]-7-carboxamide]
> 500 nM | ≤ 100 nM | O=C(NO)c1ccc2c(c1)C[C@@]1(CC2)CCN(CC(=O)N2CCOCC2)C1=O [Compound I-64, (S)—N-hydroxy-1′-(2-morpholino-2-oxoethyl)-2′-oxo-3,4-dihydro-1H-spiro[naphthalene-2,3′-pyrrolidine]-7-carboxamide]
> 500 nM | ≤ 100 nM | COc1ccccc1CN1CC[C@@]2(CCc3ccc(C(=O)NO)cc3C2)C1=O [Compound I-65, (S)—N-hydroxy-1′-(2-methoxybenzyl)-2′-oxo-3,4-dihydro-1H-spiro[naphthalene-2,3′-pyrrolidine]-7-carboxamide]
> 500 nM | ≤ 100 nM | CC(C)n1c(CN2CC[C@@]3(CCc4ccc(C(=O)NO)cc4C3)C2=O)nc2ccccc21 [Compound I-66, (S)—N-hydroxy-1′-((1-isopropyl-1H-benzo[d]imidazol-2-yl)methyl)-2′-oxo-3,4-dihydro-1H-spiro[naphthalene-2,3′-pyrrolidine]-7-carboxamide]
> 500 nM | 100 to 500 nM | O=C(NO)c1ccc2c(c1)C[C@@]1(CC2)CCN(Cc2cc(Cl)ccc2Cl)C1=O [Compound I-67, (S)-1′-(2,5-dichlorobenzyl)-N-hydroxy-2′-oxo-3,4-dihydro-1H-spiro[naphthalene-2,3′-pyrrolidine]-7-carboxamide]
> 500 nM | ≤ 100 nM | O=C(NO)c1ccc2c(c1)C[C@@]1(CC2)CCN(Cc2c(Cl)cccc2Cl)C1=O [Compound I-68, (S)-1′-(2,6-dichlorobenzyl)-N-hydroxy-2′-oxo-3,4-dihydro-1H-spiro[naphthalene-2,3′-pyrrolidine]-7-carboxamide]
> 500 nM | ≤ 100 nM | COc1cccc(CN2CC[C@@]3(CCc4ccc(C(=O)NO)cc4C3)C2=O)c1 [Compound I-69, (S)—N-hydroxy-1′-(3-methoxybenzyl)-2′-oxo-3,4-dihydro-1H-spiro[naphthalene-2,3′-pyrrolidine]-7-carboxamide]
> 500 nM | ≤ 100 nM | O=C(NO)c1ccc2c(c1)C[C@@]1(CC2)CCN(Cc2cccnc2)C1=O [Compound I-70, (S)—N-hydroxy-2′-oxo-1′-(pyridin-3-ylmethyl)-3,4-dihydro-1H-spiro[naphthalene-2,3′-pyrrolidine]-7-carboxamide]
> 500 nM | ≤ 100 nM | O=C(NO)c1ccc2c(c1)C[C@@]1(CC2)CCN(Cc2ccccn2)C1=O [Compound I-71, (S)—N-hydroxy-2′-oxo-1′-(pyridin-2-ylmethyl)-3,4-dihydro-1H-spiro[naphthalene-2,3′-pyrrolidine]-7-carboxamide]
> 500 nM | ≤ 100 nM | O=C(NO)c1ccc2c(c1)C[C@@]1(CC2)CCN(Cc2cccc(F)c2)C1=O [Compound I-72, (S)-1′-(3-fluorobenzyl)-N-hydroxy-2′-oxo-3,4-dihydro-1H-spiro[naphthalene-2,3′-pyrrolidine]-7-carboxamide]
> 500 nM | ≤ 100 nM | O=C(NO)c1ccc2c(c1)C[C@@]1(CC2)CCN(Cc2ccc(OC(F)(F)F)cc2)C1=O [Compound I-73, (S)—N-hydroxy-2′-oxo-1′-(4-(trifluoromethoxy)benzyl)-3,4-dihydro-1H-spiro[naphthalene-2,3′-pyrrolidine]-7-carboxamide]
> 500 nM | ≤ 100 nM | O=C(NO)c1ccc2c(c1)C[C@@]1(CC2)CCN(Cc2cccc(Cl)c2)C1=O [Compound I-74, (S)-1′-(3-chlorobenzyl)-N-hydroxy-2′-oxo-3,4-dihydro-1H-spiro[naphthalene-2,3′-pyrrolidine]-7-carboxamide]
> 500 nM | ≤ 100 nM | COc1ccc(CN2CC[C@@]3(CCc4ccc(C(=O)NO)cc4C3)C2=O)cc1 [Compound I-75, (S)—N-hydroxy-1′-(4-methoxybenzyl)-2′-oxo-3,4-dihydro-1H-spiro[naphthalene-2,3′-pyrrolidine]-7-carboxamide]
> 500 nM | ≤ 100 nM | O=C(NO)c1ccc2c(c1)C[C@@]1(CC2)CCN(Cc2ccccc2F)C1=O [Compound I-76, (S)-1′-(2-fluorobenzyl)-N-hydroxy-2′-oxo-3,4-dihydro-1H-spiro[naphthalene-2,3′-pyrrolidine]-7-carboxamide]
100 to 500 nM | ≤ 100 nM | O=C(NO)c1ccc2c(c1)C[C@@]1(CC2)CCN(Cc2ccc3ccccc3c2)C1=O [Compound I-77, (S)—N-hydroxy-1′-(naphthalen-2-ylmethyl)-2′-oxo-3,4-dihydro-1H-spiro[naphthalene-2,3′-pyrrolidine]-7-carboxamide]

— US9637453B2, “3-spirocyclic-6-hydroxamic acid tetralins as HDAC inhibitors” (Forma Therapeutics, Inc., priority 2015, dated 2017)
